The values that follow come from article PMC5843628, “Phosphorylation of conserved phosphoinositide binding pocket regulates sorting nexin membrane targeting” (Nature Communications, 2018).

Structures are written as SMILES.

For the experiment, the target named is full length human SNX3 (sorting nexin 3) (Homo sapiens, UniProt O60493). Nature of the experiment: NMR chemical shift perturbation titration, […]-labelled protein. The class given is binding.
Chain of full length human SNX3 (sorting nexin 3) (O60493 whole entry): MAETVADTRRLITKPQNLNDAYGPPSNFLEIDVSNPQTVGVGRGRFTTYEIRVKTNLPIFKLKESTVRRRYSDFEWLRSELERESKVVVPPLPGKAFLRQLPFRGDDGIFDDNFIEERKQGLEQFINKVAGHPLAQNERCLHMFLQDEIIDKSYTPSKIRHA

Regarding `O=P(O)(O)O[C@@H]1[C@H](O)[C@H](OP(=O)(O)O)[C@@H](O)[C@H](O)[C@H]1O` [Ins(1,3)P2], the Kd turned out to be 170 ± 34.1 µM.

As for `CCCC(=O)OC[C@H](COP(=O)(O)O[C@@H]1[C@H](O)[C@H](OP(=O)(O)O)[C@@H](O)[C@H](O)[C@H]1O)OC(=O)CCC` [c4-PI3P], the Kd was found to be 159 ± 36.1 µM.
